# Data from PMC13192270, “RhlR quorum-sensing receptor ligand sensitivity regulates the differential expression of phenazine genes in Pseudomonas aeruginosa” (Journal of Bacteriology, 2026).
# Target: T1, RhlR (T58L) (Pseudomonas aeruginosa, UniProt P54292, T58L)
# T1 construct: expressed in transfected cells; host or cells: E. coli carrying pBAD-A-rhlR mutant, pCS26-prhlA-luxCDABE and pACYC-pqsE or empty pACYC
# T1 sequence (P54292 1-241 T58L): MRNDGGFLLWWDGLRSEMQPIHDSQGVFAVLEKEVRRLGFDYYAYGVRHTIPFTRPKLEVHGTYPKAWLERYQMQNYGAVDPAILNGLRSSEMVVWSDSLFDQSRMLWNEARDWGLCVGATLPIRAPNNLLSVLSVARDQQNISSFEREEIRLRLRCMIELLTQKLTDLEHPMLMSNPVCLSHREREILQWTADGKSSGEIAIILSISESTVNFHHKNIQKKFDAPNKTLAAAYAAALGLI
# Assay: E. coli prhlA-luxCDABE luciferase reporter assay
# Type: cell-based, Escherichia coli
# From the text: Previous analysis of the RhlR LBP focused on highly conserved residues that were known from other AHL-binding proteins to be important contacts for AHL molecules, particularly the lactone head group. We performed conservation analyses on 300 LuxR-type receptors to determine variable and moderately conserved residues in the LBP (Fig. 1B) and, in conjunction with our previously determined experimental structure of WT RhlR bound to the synthetic agonist mBTL, used for docking C4- and C6HSL. Based on our docking simulations, C4- and C6HSL occupy a similar position in the LBP as mBTL, a highly efficacious activator of RhlR (Fig. 1C; Fig. S1). We targeted residues A44, G46, T58, L69, Y72, D81, I84, W96, and W108 (Fig. 1B and C). These residues were selected because of their proximity to the acyl tail of C4HSL, as well as the differences in conservation that are observed at these sites. We used an E. coli luciferase reporter assay to monitor ligand-dependent activation of WT RhlR and RhlR variants. WT RhlR and RhlR variants were expressed under the control of an arabinose-inducible promoter (Fig. S2). Transcription was monitored by light production via the expression of the luxCDABE operon controlled by the RhlR-dependent promoter of rhlA. Binding of RhlR to the rhlA promoter is highly dependent on the C4HSL-RhlR interaction, based on ChIP-seq analyses performed in P. aeruginosa as well as previously published E. coli reporter systems ([34], [39]). After expressing WT RhlR and RhlR variants in the E. coli reporter system, we performed dose response assays using C4HSL to calculate the concentration of C4HSL required to activate the reporter system to 50% maximum levels (EC50 value; Table 1). As expected, transcription activation by WT RhlR increased with increased C4HSL levels, with an EC50 value of ~2 µM. We observed a range of responses. Figure 1C depicts the targeted residues, which are colored based on the effect of amino acid substitution.
# RhlR requires the accessory-binding protein, PqsE, for maximal activity. To determine if PqsE expression altered the activation of RhlR variants, we assessed AHL-dependent RhlR activation of the prhlA-luxCDABE reporter in the presence of a third plasmid that constitutively expresses PqsE in E. coli. […] RhlR variants that were still active but with increased EC50 values for C4HSL could have their activity enhanced by PqsE. […] Thus, alterations to the LBP can diminish the additive effect of PqsE-dependent transcription, indicating a potential role of allosteric conformational changes dependent on ligand occupancy. […] RhlR variants at residues I84 and W108 could not be activated by C4HSL, and thus, light levels remained low at all concentrations that were tested. Unlike the aforementioned variants, RhlR I84M/W and RhlR W108F/Y were activated by the expression of PqsE (Fig. S4).
# All E. coli strains in this study were grown overnight with shaking in 5 mL Luria-Bertani (LB) media supplemented with 100 µg/mL ampicillin, 50 µg/mL kanamycin, and 15 µg/mL tetracycline at 37°C overnight. Overnight cultures were diluted 1:100 into fresh media, grown at 37°C with shaking for 2 h until reaching OD600 = 0.4. Cultures were induced with a final concentration of 0.1% arabinose, and 198 μL of the induced culture was mixed with 2 μL of C4HSL dilutions in a clear-bottom, black-opaque 96-well plate (Corning) and grown at 37°C with shaking for 4 h. The C4HSL dilution series was performed 1:1 in dimethyl sulfoxide (DMSO) with a top final concentration of 10 μM. Luminescence and optical density were recorded using a Glomax (Promega) plate reader.
structure (smiles),measurement,setting,value
"CCCC(=O)N[C@H]1CCOC1=O [C4HSL, N-butyryl-L-homoserine lactone]",EC50,Vector (no pqsE),854 nM
same,EC50,pqsE co-expressed,99 nM
